In patent US11203613B2, “Peptidomimetic proteasome inhibitors” (CORNELL UNIVERSITY, priority 2017, dated 2021):
Several values for one entry are separate records, joined by “and”; a condition that tells them apart may be missing. Identical values can stand only once. Like-named read-outs stand apart in the source and are kept apart here.

What was measured:
[1] = target: Mtb20SOG (Mycobacterium tuberculosis, UniProt P9WHT9); assay: biochemical
[2] = target: Human Constitutive (Hu C-20S) β5 Active Subunit (Homo sapiens, UniProt P28074); assay: IC50 determination, human constitutive 20S proteasome β5c (suc-LLVY-AMC hydrolysis); assay type: biochemical; details: Table 2; several values in a cell are repeat determinations; read-out: Hu c-20S IC50
[3] = Table 2, several values in a cell are repeat determinations

Chain of Mtb20SOG (P9WHT9 58-291): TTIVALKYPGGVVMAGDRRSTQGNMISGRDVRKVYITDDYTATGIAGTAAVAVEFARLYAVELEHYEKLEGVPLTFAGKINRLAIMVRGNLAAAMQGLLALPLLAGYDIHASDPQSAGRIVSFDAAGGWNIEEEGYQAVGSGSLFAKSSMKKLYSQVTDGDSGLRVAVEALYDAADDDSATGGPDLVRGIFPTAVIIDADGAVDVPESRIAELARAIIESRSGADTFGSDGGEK

SMILES	IC50 [1]	IC50 [2]	IC50 [1, 3]
C[C@H]1CCCCN1C(=O)C[C@H](NC(=O)CCC(C)(C)C)C(=O)NCc1nc2ccccc2[nH]1 [CF-503191]	0.456 µM	10.3 µM	–
CC[C@H]1CCCCN1C(=O)C[C@H](NC(=O)C1CC(C)(C)C1)C(=O)N[C@@H](C)c1nc2c(F)cccc2[nH]1 [CF-503464]	0.01 µM and 0.019 µM	1.26 µM	–
CC(C)CCC(=O)N[C@@H](CC(=O)N1CCCC[C@@H]1C)C(=O)N[C@@H](C)c1nc2ccccc2[nH]1 [CF-503149]	–	18.9 µM and 23.5 µM	0.136 µM and 0.118 µM
CC[C@H]1CCCCN1C(=O)C[C@H](NC(=O)CCC(C)C)C(=O)N[C@@H](C)c1nc2cc(F)c(F)cc2[nH]1 [CF-503229]	6 µM	5 µM	–
CC(C)CCS(=O)(=O)NC(CC(=O)N1CCCC1c1ccccc1)C(=O)NC(C)c1nc2ccccc2[nH]1 (stereo not drawn) [CF-503184]	2.6 µM	10.7 µM	–
C[C@H](NC(=O)[C@H](CC(=O)N1CCC[C@@H]1c1ccccc1)NC(=O)CCC(C)(C)C)c1nc2ccccc2[nH]1 [CF-503156]	–	16.6 µM	0.088 µM
CC[C@H]1CCCCN1C(=O)C[C@H](NC(=O)CCc1ccccc1)C(=O)N[C@@H](C)c1nc2c(F)cccc2[nH]1 [CF-503291]	0.007 µM and 0.006 µM	2.64 µM and 3.39 µM	–
Cc1ccc(S(=O)(=O)N[C@@H](CC(=O)N2CCCC[C@@H]2C)C(=O)N[C@@H](C)c2ncc(-c3ccc(F)cc3F)[nH]2)cc1 [CF-503143]	0.494 µM	6.47 µM	–
CC[C@H]1CCCCN1C(=O)C[C@H](NC(=O)NCc1ccccc1)C(=O)N[C@@H](C)c1nc2c(F)cccc2[nH]1 [CF-503304]	0.359 µM and 0.327 µM	9.36 µM and 9.4 µM	–
CC[C@H]1CCCCN1C(=O)C[C@H](NC(=O)CCC(C)(C)C)C(=O)N[C@@H](C)c1nc2c(F)cccc2[nH]1 [CF-503222]	–	11.2 µM and 12.3 µM and 11.7 µM	0.015 µM and 0.029 µM and 0.041 µM
Cc1cc(C(=O)N[C@@H](CC(=O)N2CCCC2)C(=O)N[C@@H](C)c2nc(-c3ccc(F)cc3F)c[nH]2)no1 [CF-503161]	3.34 µM	16.7 µM	–
C[C@H](NC(=O)[C@H](CC(=O)N1CCCC[C@@H]1C)NC(=O)C1CCC1)c1ncc(-c2ccc(F)cc2F)[nH]1 [CF-503146]	0.163 µM	2.41 µM	–
CC(C)CS(=O)(=O)N[C@@H](CC(=O)N1CCCC[C@@H]1C)C(=O)N[C@@H](C)c1ncc(-c2ccc(F)cc2F)[nH]1 [CF-503141]	–	4.9 µM	0.368 µM
CC(NC(=O)C(CC(=O)N1CCCCC1C)NC(=O)N(C)Cc1ccccc1)c1nc2c(F)cccc2[nH]1 (stereo not drawn) [CF-503460]	0.272 µM	17.2 µM	–
C[C@H](NC(=O)[C@H](CC(=O)N1CCCC[C@@H]1C)NC(=O)CC1CC1)c1ncc(Cc2ccccc2)[nH]1 [CF-503136]	–	10.4 µM	0.925 µM
Cc1cc(C(=O)N[C@@H](CC(=O)N2CCCC[C@@H]2C)C(=O)N[C@@H](C)c2ncc(-c3ccc(F)cc3F)[nH]2)no1 [CF-503111]	0.041 µM and 0.034 µM	7.2 µM and 5.48 µM	–
C[C@H](NC(=O)[C@H](CC(=O)N1CCCC[C@@H]1C)NC(=O)C1CC(C)(C)C1)c1nc2c(F)cccc2[nH]1 (single isomer, unassigned) [CF-503465]	–	7.62 µM and 1.92 µM	0.025 µM and 0.032 µM
C[C@H](NC(=O)[C@H](CC(=O)N1CCCC[C@@H]1C)NC(=O)CCc1ccccc1)C(=O)NCc1cccc(N)c1	–	0.69 µM	0.005 µM
CC[C@H]1CCCCN1C(=O)C[C@H](NC(=O)OCc1ccccc1)C(=O)N[C@@H](C)c1nc2c(F)cccc2[nH]1 [CF-503461]	–	5.8 µM and 8.2 µM	0.068 µM and 0.075 µM
CC(C)CCC(=O)N[C@@H](CC(=O)N1CCCCC1C(C)C)C(=O)N[C@@H](C)c1ncc(-c2ccc(F)cc2F)[nH]1 (stereo partly drawn) [CF-503218]	–	3.18 µM	0.136 µM and 0.168 µM
C[C@H](NC(=O)[C@H](CC(=O)N1CCCC[C@@H]1C)NC(=O)CCc1ccccc1)C(=O)NCc1cccc(NC(=O)OC(C)(C)C)c1	–	50.2 µM	24.7 µM
C[C@H](NC(=O)[C@H](CC(=O)N1CCC[C@@H]1c1ccccc1)Nc1nc2ccccc2o1)c1ncc(-c2ccccc2F)[nH]1 [CF-503242]	–	16.8 µM and 20.6 µM	0.753 µM and 0.677 µM
CC(C)CCS(=O)(=O)N[C@@H](CC(=O)N1CCC[C@@H]1c1ccccc1)C(=O)N[C@@H](C)c1nc2ccccc2[nH]1 [CF-503183]	–	10.1 µM and 9.7 µM and 10 µM	0.224 µM and 0.242 µM and 0.124 µM
CC(C)CCC(=O)N[C@@H](CC(=O)N1CCCC[C@@H]1C)C(=O)N[C@@H](C)c1ncc(-c2ccc(F)cc2F)[nH]1 [CF-503198]	–	7.25 µM	1.57 µM
CC[C@H]1CCCCN1C(=O)C[C@H](NC(=O)N(C)Cc1ccccc1)C(=O)N[C@@H](C)c1nc2c(F)cccc2[nH]1 [CF-503451]	0.176 µM and 0.184 µM	3.33 µM and 3.7 µM	–
C[C@H](NC(=O)[C@H](CC(=O)N1CCC[C@@H]1c1ccccc1)NC(=O)CC1CC1)c1ncc(Cc2ccccc2)[nH]1 [CF-503137]	0.078 µM and 0.064 µM	12.6 µM and 10.6 µM	–
Cc1cc(C(=O)NC(CC(=O)N2CCCCC2C)C(=O)NC(C)c2ncc(-c3ccccc3)[nH]2)no1 (mixture of isomers) [CF-503094]	0.471 µM and 0.726 µM	12 µM and 11 µM	–

SMILES	IC50 [1]	IC50 [2]	IC50 [1, 3]
CC(C)CCC(=O)N[C@@H](CC(=O)N1CCOC[C@@H]1C)C(=O)N[C@@H](C)c1nc(-c2ccc(F)cc2F)c[nH]1 [CF-503210]	0.407 µM	15.2 µM	–
CC[C@H]1CCCCN1C(=O)C[C@H](NC(=O)N(C)CC(C)C)C(=O)N[C@@H](C)c1nc2c(F)cccc2[nH]1 [CF-503457]	–	5.03 µM	2.36 µM
C[C@H](NC(=O)N(CC(=O)N1CCCC[C@@H]1C)NC(=O)CCC(C)(C)C)C(=O)NCc1ccc(F)cc1F [CF-503202]	–	8.5 µM and 9.12 µM	8.32 µM and 8.8 µM
Cc1cc(C(=O)N[C@@H](CC(=O)N2CCCCC2C)C(=O)N(C)[C@@H](C)C(=O)NCc2ccc(F)cc2F)no1 (stereo partly drawn)	–	19 µM	10 µM
CC(C)CCC(=O)N[C@@H](CC(=O)N1CCCC[C@@H]1C)C(=O)N[C@@H](C)c1nc2c(F)cccc2[nH]1 [CF-503225]	–	16.2 µM and 16.9 µM	0.097 µM and 0.118 µM
C[C@H](NC(=O)[C@H](CC(=O)N1CCCC1)NC(=O)CCC(C)(C)C)c1ncc(-c2ccc(F)cc2F)[nH]1 [CF-503160]	–	10.3 µM	0.796 µM
CC(C)CCC(=O)N[C@@H](CC(=O)N1CCCCCC1)C(=O)N[C@@H](C)c1nc(-c2ccc(F)cc2F)c[nH]1 [CF-503214]	0.667 µM	10.2 µM	–
Cc1cc(C(=O)N[C@@H](CC(=O)N2CCCC[C@@H]2C)C(=O)N[C@@H](C)c2ncc(-c3ccccc3)[nH]2)no1 [CF-503102]	–	14 µM and 10 µM	0.717 µM and 0.44 µM
CC[C@H]1CCCCN1C(=O)C[C@H](NC(=O)CC1CC1)C(=O)N[C@@H](C)c1nc2c(F)cccc2[nH]1 [CF-503318]	0.112 µM	16.9 µM	–
CC(C)CCC(=O)N[C@@H](CC(=O)N1CCCC[C@H]1C)C(=O)N[C@@H](C)c1nc(-c2ccc(F)cc2F)c[nH]1 [CF-503199]	1 µM	10.5 µM	–
C[C@H](NC(=O)[C@@H](N)CC(=O)N1CCC[C@@H]1c1ccccc1)c1ncc(-c2ccccc2F)[nH]1 [CF-503240]	–	94 µM	8.5 µM
C[C@H](NC(=O)[C@H](CC(=O)N1CCCC[C@@H]1C)NC(=O)CCC(C)(C)C)c1ncc(-c2ccc(F)cc2F)[nH]1 [CF-503158]	–	5.3 µM and 8.5 µM	0.027 µM and 0.022 µM
Cc1cc(C(=O)N[C@@H](CC(=O)N2CCC[C@@H]2c2ccccc2)C(=O)N[C@@H](C)c2nc3ccccc3[nH]2)no1 [CF-503152]	0.184 µM and 0.127 µM	11 µM and 9.7 µM	–
Cc1cc(C(=O)N[C@@H](CC(=O)N2CCCC[C@@H]2C)C(=O)N[C@@H](C)c2nc3c(F)cccc3[nH]2)no1 [CF-503274]	0.069 µM	7.09 µM	–
CC(C)CCS(=O)(=O)N[C@@H](CC(=O)N1CCC[C@@H]1c1ccccc1)C(=O)NC(C)c1nc2ccccc2[nH]1 (stereo partly drawn) [CF-503154]	–	11.8 µM	0.116 µM and 0.202 µM
CC[C@H]1CCCCN1C(=O)C[C@H](Nc1nc2ccccc2o1)C(=O)N[C@@H](C)c1nc2c(F)cccc2[nH]1 [CF-503321]	–	4.5 µM and 5.2 µM	0.271 µM and 0.374 µM
C[C@H](NC(=O)[C@H](CC(=O)N1CCC[C@@H]1C)NC(=O)CCC(C)(C)C)c1nc2ccccc2[nH]1 [CF-503163]	3.5 µM	16.5 µM	–
CC[C@H]1CCCCN1C(=O)C[C@H](NS(=O)(=O)CCC(C)C)C(=O)N[C@@H](C)c1nc2c(F)cccc2[nH]1 [CF-503230]	–	17.8 µM and 8.6 µM	0.4 µM and 0.52 µM
CC[C@H]1CCCCN1C(=O)C[C@H](NC(=O)CCC(C)C)C(=O)N[C@@H](C)c1nc2cc(F)cc(F)c2[nH]1 [CF-503219]	0.793 µM and 0.84 µM	4.06 µM and 4.5 µM	–
CC(C)C(=O)CN[C@@H](CC(=O)N1CCCC[C@@H]1C)C(=O)N[C@@H](C)c1ncc(-c2ccc(F)cc2F)[nH]1 [CF-503151]	11.4 µM	9.9 µM	–
CC(C)CCC(=O)N[C@@H](CC(=O)N1CCCC[C@@H]1C(F)(F)F)C(=O)N[C@@H](C)c1nc(-c2ccc(F)cc2F)c[nH]1 [CF-503212]	0.346 µM	4.87 µM	–
Cc1cc(C(=O)N[C@@H](CC(=O)N2CCCC[C@@H]2C)C(=O)N[C@@H](C)c2nc3ccccc3[nH]2)no1 [CF-503148]	–	17.4 µM	0.906 µM
C[C@H](NC(=O)[C@H](CC(=O)N1CCCC[C@@H]1C)NS(=O)(=O)CCC1CC1)c1ncc(-c2ccc(F)cc2F)[nH]1 [CF-503206]	–	6.16 µM	0.506 µM
C[C@H](NC(=O)[C@H](CC(=O)N1CCCC[C@@H]1C)NC(=O)CC1CCOCC1)c1ncc(Cc2ccccc2)[nH]1 [CF-503135]	–	9.12 µM and 13.5 µM	0.45 µM and 0.386 µM
C[C@H](NC(=O)[C@H](CC(=O)N1CCCC[C@@H]1C)NC(=O)CC1CC1)c1ncc(-c2ccc(F)cc2F)[nH]1 [CF-503138]	–	11.8 µM and 10.5 µM	0.169 µM and 0.085 µM
C[C@H](NC(=O)[C@H](CC(=O)N1CCCC[C@@H]1C)NS(=O)(=O)Cc1ccccc1)c1ncc(-c2ccc(F)cc2F)[nH]1 [CF-503140]	–	6.13 µM	0.379 µM
CC(C)C1CC1C(=O)N[C@@H](CC(=O)N1CCCC[C@@H]1C)C(=O)N[C@@H](C)c1nc2c(F)cccc2[nH]1 (stereo partly drawn) [CF-503381]	–	2.47 µM	0.041 µM and 0.036 µM
